In US12122761B2, “2-azaspiro[3.4]octane derivatives as M4 agonists” (NOVARTIS AG, priority 2019, dated 2024):

What was measured:
[1] = biological target: T1, human cloned CHRM2 receptor (M2_CHO cells) (Homo sapiens, UniProt P08172); assay: CHRM2 Ca++ Flux Assay (agonist mode, FDSS 7000EX); format: cell-based; settings: for Emax: Percent Activity measured to EC100 of Carbachol, read-out: M2 FDSS PA; for EC50: agonist mode, geometric mean if tested more than once, read-out: M2 FDSS EC50
T1 construct: expressed in transfected cells; host or cells: CHO-K1
T1 sequence (P08172 1-466): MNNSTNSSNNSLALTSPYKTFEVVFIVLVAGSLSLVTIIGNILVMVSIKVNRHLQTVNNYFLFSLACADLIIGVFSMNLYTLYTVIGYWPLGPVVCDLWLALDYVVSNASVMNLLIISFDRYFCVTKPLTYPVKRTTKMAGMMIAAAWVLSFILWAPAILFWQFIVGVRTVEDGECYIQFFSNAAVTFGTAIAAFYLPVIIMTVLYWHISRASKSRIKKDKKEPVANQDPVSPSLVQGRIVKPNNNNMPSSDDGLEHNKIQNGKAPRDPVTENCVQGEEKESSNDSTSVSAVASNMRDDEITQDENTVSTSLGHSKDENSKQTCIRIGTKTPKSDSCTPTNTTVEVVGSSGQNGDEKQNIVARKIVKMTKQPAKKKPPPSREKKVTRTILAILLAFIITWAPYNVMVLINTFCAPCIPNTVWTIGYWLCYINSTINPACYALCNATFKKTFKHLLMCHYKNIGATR
How it was run: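 Agonist-mode Ca++ flux in CHO-K1 cells stably expressing human CHRM2, dye-loaded, then held 60 min at room temperature in buffer with 20 μM ATP before compound addition; traces read over 3 minutes. Four-parameter fit of triplicate wells; percent activity relative to Carbachol EC100.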

[2] = biological target: T2, human cloned CHRM5 receptor (M5_CHO) (Homo sapiens, UniProt P08912); assay: CHRM5 Ca++ Flux Assay (agonist mode, FDSS 7000EX); format: cell-based; settings: for Emax: Percent Activity measured to EC100 of Carbachol, read-out: M5 FDSS PA; for EC50: agonist mode, geometric mean if tested more than once, read-out: M5 FDSS EC50
T2 construct: expressed in transfected cells; host or cells: CHO (M5_CHO)
T2 sequence (P08912 1-532): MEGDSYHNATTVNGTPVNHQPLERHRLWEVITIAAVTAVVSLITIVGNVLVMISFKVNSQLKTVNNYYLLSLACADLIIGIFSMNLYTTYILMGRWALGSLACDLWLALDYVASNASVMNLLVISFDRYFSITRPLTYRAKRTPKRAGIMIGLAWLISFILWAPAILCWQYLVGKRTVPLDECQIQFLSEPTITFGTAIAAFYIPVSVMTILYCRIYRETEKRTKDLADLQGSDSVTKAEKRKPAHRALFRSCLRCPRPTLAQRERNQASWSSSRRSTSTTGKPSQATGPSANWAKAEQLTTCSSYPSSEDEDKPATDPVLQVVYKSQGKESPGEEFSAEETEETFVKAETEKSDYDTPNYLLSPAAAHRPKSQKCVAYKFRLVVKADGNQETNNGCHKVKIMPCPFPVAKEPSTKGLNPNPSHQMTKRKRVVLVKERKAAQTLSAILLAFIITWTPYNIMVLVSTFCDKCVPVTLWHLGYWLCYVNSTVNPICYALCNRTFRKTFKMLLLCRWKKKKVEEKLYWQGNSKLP
How it was run: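 Fluorescent intracellular Ca++ signal, recorded for 3 min, served as read-out for CHO-K1 cells stably carrying human M3 or M5 receptor. Triplicate 11-point dose responses were averaged and fitted to a four-parameter model, with percent activity referenced to the carbachol EC100.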

Row | Compound | Emax [1] [%] | EC50 [1] [nM] | Emax [2] [%] | EC50 [2] [nM]
1 | Fc1ccc(N2CC3(CC[C@@H](N4CCC(c5ccccc5C5CCOCC5)CC4)C3)C2)cn1 [Example 5CC, (R)-2-(6-fluoropyridin-3-yl)-6-(4-(2-(tetrahydro-2H-pyran-4-yl)phenyl)piperidin-1-yl)-2-azaspiro[3.4]octane] | 35 | 466 | 0 | > 25000
2 | COc1ccccc1C1CCN([C@@H]2CCC3(C2)CN(c2cnc(C)cn2)C3)CC1 [Example 5DD, (R)-6-(4-(2-methoxyphenyl)piperidin-1-yl)-2-(5-methylpyrazin-2-yl)-2-azaspiro[3.4]octane] | 0 | > 25000 | 0 | > 25000
3 | Cc1nccnc1N1CC2(CC[C@@H](N3CCC(c4ccccc4OCC(C)(C)O)CC3)C2)C1 [Example 5T, (R)-2-methyl-1-(2-(1-(2-(3-methylpyrazin-2-yl)-2-azaspiro[3.4]octan-6-yl)piperidin-4-yl)phenoxy)propan-2-ol] | 0 | – | 0 | > 25000
4 | CC(C)(O)COc1ccccc1C1CCN([C@@H]2CCC3(C2)CN(c2ncncn2)C3)CC1 [Example 5U, (R)-1-(2-(1-(2-(1,3,5-triazin-2-yl)-2-azaspiro[3.4]octan-6-yl)piperidin-4-yl)phenoxy)-2-methylpropan-2-ol] | 0 | – | 0 | > 25000
5 | COc1ccc(F)cc1C1CCN([C@@H]2CCC3(C2)CN(c2ccnnc2)C3)CC1 [Example 5V, (R)-6-(4-(5-fluoro-2-methoxyphenyl)piperidin-1-yl)-2-(pyridazin-4-yl)-2-azaspiro[3.4]octane] | 0 | – | 0 | > 25000
6 | Fc1cccc(C2CCN([C@@H]3CCC4(C3)CN(c3cncnc3)C4)CC2)c1OC1COC1 [Example 5W, (R)-6-(4-(3-fluoro-2-(oxetan-3-yloxy)phenyl)piperidin-1-yl)-2-(pyrimidin-5-yl)-2-azaspiro[3.4]octane] | 16 | 57 | 0 | > 25000
7 | COCCOc1ccccc1C1CCN([C@@H]2CCC3(C2)CN(c2cccnn2)C3)CC1 [Example 5X, (R)-6-(4-(2-(2-methoxyethoxy)phenyl)piperidin-1-yl)-2-(pyridazin-3-yl)-2-azaspiro[3.4]octane] | 0 | – | 0 | > 25000
8 | COCCOc1ccccc1C1CCN([C@@H]2CCC3(C2)CN(c2cnc(C)cn2)C3)CC1 [Example 5Y, (R)-6-(4-(2-(2-methoxyethoxy)phenyl)piperidin-1-yl)-2-(5-methylpyrazin-2-yl)-2-azaspiro[3.4]octane] | 0 | < 26000 | 0 | > 25000
9 | COCCOc1ccccc1C1CCN([C@@H]2CCC3(C2)CN(c2ccnnc2)C3)CC1 [Example 5Z, (R)-6-(4-(2-(2-methoxyethoxy)phenyl)piperidin-1-yl)-2-(pyridazin-4-yl)-2-azaspiro[3.4]octane] | 0 | – | 0 | > 25000
10 | CC(C)(O)CCOc1ccccc1C1CCN([C@@H]2CCC3(C2)CN(C(=O)C2COC2)C3)CC1 [Example 7CC, (R)-(6-(4-(2-(3-hydroxy-3-methylbutoxy)phenyl)piperidin-1-yl)-2-azaspiro[3.4]octan-2-yl)(oxetan-3-yl)methanone] | 0 | – | 9 | 2010
11 | CC(C)COc1ccccc1C1CCN([C@@H]2CCC3(C2)CN(C(=O)C2COC2)C3)CC1 [Example 7F, (R)-(6-(4-(2-isobutoxyphenyl)piperidin-1-yl)-2-azaspiro[3.4]octan-2-yl)(oxetan-3-yl)methanone] | 0 | – | 0 | > 25000

Continued, values first:

Row | Emax [1] [%] | EC50 [1] [nM] | Emax [2] [%] | EC50 [2] [nM] | Compound
12 | 10 | 32 | 0 | > 25000 | COc1ccc(F)cc1C1CCN([C@@H]2CCC3(C2)CN(C(=O)C2COC2)C3)CC1 [Example 6A, (R)-(6-(4-(5-fluoro-2-methoxyphenyl)piperidin-1-yl)-2-azaspiro[3.4]octan-2-yl)(oxetan-3-yl)methanone]
13 | 0 | – | 0 | > 25000 | O=C(C1COC1)N1CC2(CC[C@@H](N3CCC(c4ccc(F)cc4OC(F)F)CC3)C2)C1 [Example 6B, (R)-(6-(4-(2-(difluoromethoxy)-4-fluorophenyl)piperidin-1-yl)-2-azaspiro[3.4]octan-2-yl)(oxetan-3-yl)methanone]
14 | 0 | – | 0 | > 25000 | CC(C)Oc1cc(F)ccc1C1CCN([C@@H]2CCC3(C2)CN(C(=O)C2COC2)C3)CC1 [Example 6D, (R)-(6-(4-(4-fluoro-2-isopropoxyphenyl)piperidin-1-yl)-2-azaspiro[3.4]octan-2-yl)(oxetan-3-yl)methanone]
15 | 0 | – | 0 | > 25000 | O=C(N1CC2(CC[C@@H](N3CCC(c4ccccc4C4CCOCC4)CC3)C2)C1)C1(F)CC1 [Example 6E, (R)-(1-fluorocyclopropyl)(6-(4-(2-(tetrahydro-2H-pyran-4-yl)phenyl)piperidin-1-yl)-2-azaspiro[3.4]octan-2-yl)methanone]
16 | 55 | 142 | 0 | > 25000 | O=C(C1COC1)N1CC2(CC[C@@H](N3CCC(c4ccccc4OC4CC4)CC3)C2)C1 [Example 7A, (R)-(6-(4-(2-cyclopropoxyphenyl)piperidin-1-yl)-2-azaspiro[3.4]octan-2-yl)(oxetan-3-yl)methanone]
17 | 77 | 651 | 0 | > 25000 | CC(C)(F)COc1ccccc1C1CCN([C@@H]2CCC3(C2)CN(C(=O)C2COC2)C3)CC1 [Example 7B, (R)-(6-(4-(2-(2-fluoro-2-methylpropoxy)phenyl)piperidin-1-yl)-2-azaspiro[3.4]octan-2-yl)(oxetan-3-yl)methanone]
18 | 0 | – | 0 | > 25000 | O=C(C1COC1)N1CC2(CC[C@@H](N3CCC(c4ccccc4Oc4nccs4)CC3)C2)C1 [Example 7C, (R)-oxetan-3-yl(6-(4-(2-(thiazol-2-yloxy)phenyl)piperidin-1-yl)-2-azaspiro[3.4]octan-2-yl)methanone]
19 | 31 | 92 | 16 | 2200 | N#CCCOc1ccccc1C1CCN([C@@H]2CCC3(C2)CN(C(=O)C2COC2)C3)CC1 [Example 7D, (R)-3-(2-(1-(2-(oxetane-3-carbonyl)-2-azaspiro[3.4]octan-6-yl)piperidin-4-yl)phenoxy)propanenitrile]
20 | 0 | – | 18 | 1120 | O=C(C1COC1)N1CC2(CC[C@@H](N3CCC(c4ccccc4OCCOC(F)(F)F)CC3)C2)C1 [Example 7DD, (R)-oxetan-3-yl(6-(4-(2-(2-(trifluoromethoxy)ethoxy)phenyl)piperidin-1-yl)-2-azaspiro[3.4]octan-2-yl)methanone]
21 | 23 | 141 | 13 | 1560 | O=C(C1COC1)N1CC2(CC[C@@H](N3CCC(c4ccccc4OC[C@@H]4CCOC4)CC3)C2)C1 [Example 7E, oxetan-3-yl((R)-6-(4-(2-(((R)-tetrahydrofuran-3-yl)methoxy)phenyl)piperidin-1-yl)-2-azaspiro[3.4]octan-2-yl)methanone]
22 | 17 | 464 | 0 | > 25000 | O=C(C1COC1)N1CC2(CC[C@@H](N3CCC(c4ccccc4OCCOC4COC4)CC3)C2)C1 [Example 7EE, (R)-oxetan-3-yl(6-(4-(2-(2-(oxetan-3-yloxy)ethoxy)phenyl)piperidin-1-yl)-2-azaspiro[3.4]octan-2-yl)methanone]
